This assay in a line: Inhibition of capsid protein in HBV infected in human HepDES19 cells assessed as inhibition of viral replication incubated for 3 days by strand preferential qPCR analysis. A general note: In qPCR the cycle at which signal appears reflects the starting amount.

The text below walks through data of BindingDB's records for doi:10.1016/j.ejmech.2021.113780 (Shandong University, 2021).

As a reminder, the EC50 is the concentration that produces a half-maximal response. As for `CCOC(=O)C1=C(CN2CC3(CC2=O)CN(C(=O)OC(C)(C)C)C3)NC(c2nccs2)=NC1c1ccc(F)cc1Br` (centres undefined), the concentration for a half-maximal effect (EC50) is 13.3 µM.
In the case of `CCOC(=O)C1=C(CN2CCC3(CCN(C(=O)OC(C)(C)C)C3)C2=O)NC(c2nccs2)=NC1c1ccc(F)cc1Br` (centres undefined) it was 5.17 µM.
Consider `CCOC(=O)C1=C(CN2CC3(CCN(C(=O)OC(C)(C)C)C3)CC2=O)NC(c2nccs2)=NC1c1ccc(F)cc1Br` (centres undefined), for which the EC50 was found to be 10 µM.
As for `CCOC(=O)C1=C(CN2CCC3(CNC(=O)C3)C2)NC(c2nccs2)=NC1c1ccc(F)cc1Br` (centres undefined), the EC50 is 2.6 µM.
As to `CCOC(=O)C1=C(CN2CCC3(CC2)CNC(=O)C3)NC(c2nccs2)=NC1c1ccc(F)cc1Br` (centres undefined), the half-maximal effective concentration (EC50) turned out to be 3.8 µM.
For `CCOC(=O)C1=C(CN2CCC3(CC2)CNC3=O)NC(c2nccs2)=NC1c1ccc(F)cc1Br` (centres undefined), the EC50 was 1.17 µM.
For `CCOC(=O)C1=C(CN2CCC3(CC(=O)N(Cc4ccccc4)C3=O)C2)NC(c2nccs2)=NC1c1ccc(F)cc1Br` (centres undefined), the EC50 was 2.1 µM.
On to `CCOC(=O)C1=C(CN2CCC3(CC2)OCCO3)NC(c2nccs2)=NC1c1ccc(F)cc1Br` (centres undefined), for which the EC50 is 0.2 µM.
Consider `CCOC(=O)C1=C(CN2CCC3(CC2)CN(C(=O)OC(C)(C)C)C3)NC(c2nccs2)=NC1c1ccc(F)cc1Br` (centres undefined), for which the EC50 came out at 10.4 µM.
Turning to `CCOC(=O)C1=C(CN2CCC3(CCN(C(=O)OC(C)(C)C)C3)C2)NC(c2nccs2)=NC1c1ccc(F)cc1Br` (centres undefined), the EC50 is 4.83 µM.
With `CCOC(=O)C1=C(CN2CCC3(C2)CN(C(=O)OC(C)(C)C)C3)NC(c2nccs2)=NC1c1ccc(F)cc1Br` (centres undefined), the EC50 worked out at 8.83 µM.
Regarding `CCOC(=O)C1=C(CN2CCC3(CCNC3=O)CC2)NC(c2nccs2)=NC1c1ccc(F)cc1Br` (centres undefined), the EC50 was found to be 3.43 µM.
In the case of `CCOC(=O)C1=C(CN2CCC3(CC2)CC(=O)NC3=O)NC(c2nccs2)=NC1c1ccc(F)cc1Br` (centres undefined), the EC50 was determined as 0.68 µM.
Turning to `Nc1ccn([C@@H]2CS[C@H](CO)O2)c(=O)n1` [Epivir], the EC50 stood at 0.37 µM.
